# Values of other authors as cited in patent publication US20100056488A1, “CORTICOSTEROID CONJUGATES AND USES THEREOF” (The McLean Hospital Corporation, priority 2002, published 2010).
# Legend:
# [1] = system: ether-stress induced increase in corticosterone; conditions: dose 0.025 mg/kg; higher dose necessary to fully eliminate response
# [2] = system: corticosterone production; conditions: suppression for 24 hours
# [3] = system: cortisol production or ACTH; conditions: suppression of cortisol production or ACTH
SMILES,suppression of ether-stress induced increase in corticosterone [1],lowest dose fully effective in suppressing basal corticosterone production [2] [mg/kg],CNS activity [3]
C[C@@H]1C[C@H]2[C@@H]3CCC4=CC(=O)C=C[C@]4(C)[C@@]3(F)[C@@H](O)C[C@]2(C)[C@@]1(O)C(=O)CO [dexamethasone],significantly suppressed,0.025,–
C[C@]12CCC(=O)C=C1CC[C@@H]1[C@@H]2[C@@H](O)C[C@@]2(C)[C@H]1CC[C@]2(O)C(=O)COC(=O)CCC(=O)O [Hydrocortisone sodium succinate],–,–,CNS active
